In patent US20220056052A1, “QUINAZOLINE DERIVATIVES AS ECTONUCLEOTIDE PYROPHOSPHATASE PHOSPHODIESTERASE 1 INHIBITORS” (Riboscience LLC, priority 2018, published 2022):
Where a name gives a salt, the structure may show the parent alone.

Tests used:
[1] = target: T1, ENPP1 (Homo sapiens, UniProt P22413); assay: Measurement of 2′3′-cGAMP hydrolysis by ENPP1 (AMP-Glo)
T1 sequence (P22413 1-925): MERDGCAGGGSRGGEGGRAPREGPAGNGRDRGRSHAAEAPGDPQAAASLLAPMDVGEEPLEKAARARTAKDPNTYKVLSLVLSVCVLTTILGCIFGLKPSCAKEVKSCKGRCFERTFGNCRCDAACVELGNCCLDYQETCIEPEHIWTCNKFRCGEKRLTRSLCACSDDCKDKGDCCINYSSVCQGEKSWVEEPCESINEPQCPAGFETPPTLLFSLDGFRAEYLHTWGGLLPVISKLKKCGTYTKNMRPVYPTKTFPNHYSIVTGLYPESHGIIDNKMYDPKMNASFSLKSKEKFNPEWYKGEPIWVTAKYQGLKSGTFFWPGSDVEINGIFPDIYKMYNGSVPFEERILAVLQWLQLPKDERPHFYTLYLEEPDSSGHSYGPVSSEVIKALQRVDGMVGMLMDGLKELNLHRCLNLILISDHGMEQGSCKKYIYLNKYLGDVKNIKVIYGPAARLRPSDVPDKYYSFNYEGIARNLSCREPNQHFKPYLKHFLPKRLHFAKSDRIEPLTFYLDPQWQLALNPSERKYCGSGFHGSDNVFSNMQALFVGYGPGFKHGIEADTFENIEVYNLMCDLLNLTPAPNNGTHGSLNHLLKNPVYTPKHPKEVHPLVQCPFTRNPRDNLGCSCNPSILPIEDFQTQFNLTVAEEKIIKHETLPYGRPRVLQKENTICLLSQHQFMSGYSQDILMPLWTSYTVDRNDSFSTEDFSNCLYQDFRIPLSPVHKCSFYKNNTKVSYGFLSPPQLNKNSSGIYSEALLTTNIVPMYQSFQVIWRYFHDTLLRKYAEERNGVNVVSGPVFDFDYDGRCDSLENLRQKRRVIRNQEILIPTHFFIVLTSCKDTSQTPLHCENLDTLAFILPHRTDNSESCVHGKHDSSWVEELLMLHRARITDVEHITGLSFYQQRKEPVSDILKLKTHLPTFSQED
Experimental: Then, 15 μl of the ENPP1/Compound incubation was transferred to the 200 μM 2′3′-cGAMP solution to initiate the reaction. The 30 μl mixture was incubated for 30 min at 25° C. […] After 30 min the reaction was stopped by heating at 90° C. for 3 min.
Third, now the Promega AMP-Glo kit was used to detect 5′-AMP production as a measurement of ENPP1 enzyme activity. To do this, 10 μl of the above mentioned 30 μl total reaction per sample was transferred into 384 well white solid assay plate for measurement of 5′-AMP production. For each well, 10 μl of AMP-Glo Reagent I was added, mixed well, and incubated for 1 hour at 25° C. At this time AMP detection solution was prepared and 20 μl was added per well, and the resulting solution was incubated for 1 hr at 25° C. Duplicates were run for each inhibitor concentration. Luminescence signal (relative luminescence units, RLU) was recorded using a PerkinElmer 2300 Enspire multimode plate reader.
IC50 values of compounds were determined by loading compound concentration data and percent inhibition values into GraphPad Prism (GraphPad Prism version 7.0 for Windows, GraphPad Software, La Jolla Calif. USA, www.graphpad.com) and conducted a Sigmoidal variable slope nonlinear regression fitting.

[2] = target: T1, ENPP1; assay: Measurement of pNP-TMP hydrolysis by ENPP1; format: biochemical; conditions: substrate pNP-TMP, (S) 500 μM, KM 232 μM; Ki from IC50 by Cheng-Prusoff
Experimental: p-Nitrophenyl thymidine 5′-monophosphate (pNP-TMP) is a synthesized substrate for ENPP1. The ENPP1 enzyme activity assay with pNP-TMP substrate was conducted as follows:
Incubation of ENPP1 with compounds was set at 25° C. for 10 min.
Absorbance at 405 nm was recorded immediately in kinetic mode by PerkinElmer 2300 Enspire multimode plate reader.
For each inhibitor, the specific ENPP1 activity was calculated using the following equation: ENPP1 activity (pmol/min/μg)=Adjusted Vmax (OD405 nm/min)×conversion factor (pmol/OD405 nm)/amount of enzyme (μg)
Adjusted Vmax=V0×(Km+(S))/(S). […] V0=(OD405 nm with ENPP1−OD405 nm ENPP1 blank)/minutes. OD405 nm was plotted, with blank subtracted, against time (minutes), the initial linear rate is V0. […]
The slope is the conversion factor. The percent ENPP1 activity for each sample was calculated using the following equation:
% enzyme activity=sample enzyme activity/MAX Activity×100%.
To determine the IC50 for each compound, compound concentration values and percent enzyme activity values were inserted into GraphPad Prism (GraphPad Prism version 7.0 for Windows, GraphPad Software, La Jolla Calif. USA, www.graphpad.com), and Prism's Transform analysis was used to convert the x-axis values (compound concentration) to logarithms. A sigmoidal variable slope nonlinear regression analysis was performed using the following equation: Y=Bottom+(Top−Bottom)/(1+10^((Log IC50^−X)*HillSlope)).

[3] = tested on: HGS tumor model; assay: Anti-tumor activity in HGS tumor model; format: in vivo; conditions: animals treated with 20/kg of compound, day 42 after inoculation (vehicle 645)
Description: […]

Ki [1] [nM] | Ki [2] [nM] | SMILES | tumor size [3] [mm3]
< 1 | < 10 | COc1cc2ncnc(NCc3ccc(B(O)O)cc3)c2cc1OC [Cpd. 7, (4-(((6,7-dimethoxyquinazolin-4-yl)amino)methyl)phenyl)boronic acid formic acid salt] | 
 | < 5 | COc1ccc2c(NCc3ccc(B(O)O)cc3)ncnc2c1 [compound 30, 4-(((7-methoxyquinazolin-4-yl)amino)methyl)phenylboronic acid] | 
< 1 | < 5 | COc1cc2ncnc(N3CCC(CCCP(=O)(O)O)CC3)c2cc1OC [compound 6, (3-(1-(6,7-dimethoxyquinazolin-4-yl)piperidin-4-yl)propyl)phosphonic acid] | 
< 10 |  | COc1cc2ncnc(NCc3ccc(B(O)O)cn3)c2cc1OC [compound 8, (6-(((6,7-dimethoxyquinazolin-4-yl)amino)methyl)pyridin-3-yl)boronic acid] | 
 | < 10 | COc1cc2ncnc(NCc3ccc(B(O)O)cc3F)c2cc1OC [compound 11, 4-(((6,7-dimethoxyquinazolin-4-yl)amino)methyl)-3-fluorophenylboronic acid formic acid salt] | 
 | < 10 | COc1cc2ncnc(NCc3c(F)cc(B(O)O)cc3F)c2cc1OC [compound 24, 4-(((6,7-dimethoxyquinazolin-4-yl)amino)methyl)-3,5-difluorophenylboronic acid hydrochloride] | 
< 5 |  | COc1cc2ncnc(OCc3ccc4c(c3)B(O)OC4)c2cc1OC [compound 20, 6-(((6,7-dimethoxyquinazolin-4-yl)oxy)methyl)-3H-2,1-benzoxaborol-1-ol] | 
< 5 |  | COc1cc2ncnc(NCc3ccc(P(=O)(O)O)cc3)c2cc1OC [compound 13, (4-(((6,7-dimethoxyquinazolin-4-yl)amino)methyl)phenyl)phosphonic acid] | 
< 10 |  | COc1cc2ncnc(OCc3ccc4c(c3)COB4O)c2cc1OC [compound 21, 5-(((6,7-dimethoxyquinazolin-4-yl)oxy)methyl)-3H-2,1-benzoxaborol-1-lol] | 
< 5 |  | COc1cc2ncnc(N3CCC(CP(=O)(O)O)CC3)c2cc1OC [Cpd. 4, ((1-(6,7-dimethoxyquinazolin-4-yl)piperidin-4-yl)methyl)phosphonic acid] | 
< 5 |  | COc1cc2ncnc(NCC3CCN(S(N)(=O)=O)CC3)c2cc1OC [compound 18, 4-(((6,7-dimethoxyquinazolin-4-yl)amino)methyl)piperidine-1-sulfonamide] | 
< 10 |  | COc1cc2ncnc(Nc3ccc4c(c3)COB4O)c2cc1OC [compound 10, 5-((6,7-dimethoxyquinazolin-4-yl)amino)-1,3-dihydro-2,1-benzoxaborol-1-ol] | 
 | < 1 | COc1cc2ncnc(-c3ccc(COS(N)(=O)=O)cc3)c2cc1OC [Cpd. 17, 4-(6,7-dimethoxyquinazolin-4-yl)benzyl sulfamate] | 
 |  | C=CC(=O)N1CCN(CCCn2c(=O)c(-c3c(Cl)c(OC)cc(OC)c3Cl)cc3cnc(NC)nc32)CC1 [8-(3-(4-acryloylpiperazin-1-yl)propyl)-6-(2,6-dichloro-3,5-dimethoxyphenyl)-2-(methylamino)pyrido(2,3-d)pyrimidin-7(8H)-one] | 55
 | < 5 | COc1ccc2c(NCc3ccc(P(=O)(O)O)cc3)ncnc2c1 [compound 41, 4-(((7-methoxyquinazolin-4-yl)amino)methyl)phenylphosphonic acid formic acid salt] | 
< 1 |  | COc1cc2ncnc(N3CCC(CCCB(O)O)CC3)c2cc1OC [Cpd. 3, (3-(1-(6,7-dimethoxyquinazolin-4-yl)piperidin-4-yl)propyl)boronic acid] | 
< 1 | < 5 | COc1cc2ncnc(OCc3ccc(B(O)O)cc3)c2cc1OC [compound 19, (4-(((6,7-dimethoxyquinazolin-4-yl)oxy)methyl)phenyl)boronic acid] | 
< 1 | < 10 | COc1cc2ncnc(NCc3cccc(B(O)O)c3)c2cc1OC [compound 12, (3-(((6,7-dimethoxyquinazolin-4-yl)amino)methyl)phenyl)boronic acid] | 
